In patent publication US20090286725A1, “PEPTIDES AND DERIVATIVES THEREOF, THE MANUFACTURING THEREOF AS WELL AS THEIR USE FOR PREPARING A THERAPEUTICALLY AND/OR PREVENTIVELY ACTIVE PHARMACEUTICAL COMPOSITION” (FIBREX MEDICAL RESEARCH & DEVELOPMENT GMBH, priority 2008, published 2009):
No end group written: not given here.

Assays:
RhoA = experiment: thrombin induced RhoA activation in HUVEC culture (Rho pull-down, Western blot); assay type: cell-based, human; settings: 5 U/ml thrombin alone, 5 min
Method: The biological effect of the compounds was established in a model thrombin induced RhoA activation in human umbilical vein endothelial cell (HUVEC) culture.
HUVEC are grown to confluence under standard conditions. Before induction of Rho activity HUVEC were starved for 4 h by using IMDM (Gibco) without growth factor and serum supplements. After the starvation period 5 U/ml Thrombin (Calbiochem) or 5 U thrombin plus 50 μg/ml of test compound are added to the starvation medium for 1, 5 and 10 min. Active RhoA was isolated using Rho Assay Reagent from Upstate according to manufactures instructions. Isolates were separated on a 15% polyacrylamid gel and blotted on Nitrocellulose-Membrane (Bio-Rad). RhoA was dedected by using Anti-Rho (-A, -B, -C), clone55 from Upstate (1:500).

[1] = molecular target: T1, vascular endothelial (VE) cadherin (human, UniProt P33151 48-784); experiment: cell-based or functional assay
T1 sequence (looked up): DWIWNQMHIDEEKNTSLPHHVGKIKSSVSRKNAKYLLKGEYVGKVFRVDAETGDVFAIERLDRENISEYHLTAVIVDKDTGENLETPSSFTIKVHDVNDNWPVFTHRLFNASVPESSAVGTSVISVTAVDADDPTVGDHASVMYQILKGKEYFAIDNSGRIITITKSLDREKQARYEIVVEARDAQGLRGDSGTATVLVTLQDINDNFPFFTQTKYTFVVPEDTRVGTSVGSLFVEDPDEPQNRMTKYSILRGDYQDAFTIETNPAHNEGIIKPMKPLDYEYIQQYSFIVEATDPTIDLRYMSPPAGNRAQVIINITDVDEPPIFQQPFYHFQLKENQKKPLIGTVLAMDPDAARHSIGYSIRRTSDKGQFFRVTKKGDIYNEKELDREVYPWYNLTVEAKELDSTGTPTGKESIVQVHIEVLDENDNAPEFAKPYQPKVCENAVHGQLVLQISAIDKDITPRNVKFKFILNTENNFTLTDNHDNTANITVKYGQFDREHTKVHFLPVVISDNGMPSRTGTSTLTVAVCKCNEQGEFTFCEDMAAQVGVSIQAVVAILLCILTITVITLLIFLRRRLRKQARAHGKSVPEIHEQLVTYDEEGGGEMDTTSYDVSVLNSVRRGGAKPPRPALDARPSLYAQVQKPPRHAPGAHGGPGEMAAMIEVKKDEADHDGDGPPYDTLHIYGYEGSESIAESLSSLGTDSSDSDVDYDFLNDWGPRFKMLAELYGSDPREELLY

Molecule	Relative RhoA stimulation compared to unstimulated control (RhoA)	Relative RhoA stimulation compared to unstimulated control [1]
thrombin	3.8	
GHRPLDKKREEAPSLRPAPPPISGG-OH		0.85 fold of unstimulated control
